From paper PMC5597618, “Identification and characterization of the novel reversible and selective cathepsin X inhibitors” (Scientific Reports, 2017)

Experiments:
PC-3 cells = test: Cellular uptake and retention by LC-MS/MS; format: in vitro ADME, human; conditions: 50 µM, after 1 hour
Experimental: (§1) Evaluation of cellular uptake and retention of compound 22: sample preparation and LC- […]
(§2) PC-3 cells were treated for 1 hour with compound 22 (50 µM). Cells were washed twice with cold PBS, trypsinized, washed once more and centrifuged. A pellet of cells was resuspended in 200 µL of PBS (or in 200 µL of PBS containing 5µM inhibitor for standard addition) and transferred to 1.5 mL Eppendorf vials prefilled with 0.1 mm and 0.5 mm glass beads (NextAdvance, USA). All cell samples were then homogenized with a BulletBlender (NextAdvance, USA) for 5 min at speed setting »6«. […]
(§3) (2.30;50), (2.50;50), (2.6;5). […] ESI Jetstream parameters were set as follows: drying gas temperature 275 °C, drying gas flow 5 L/min, nebulizer 45 psi, sheath gas temperature 320 °C, sheath gas flow 11 L/min, capillary entrance voltage 4000 V and nozzle voltage 1000 V. Quadrupoles Q1 and Q3 were set at the widest resolution (2.5 amu) and multiple reaction monitoring (MRM) mass transitions used for the quantification of recorded traces are presented in Supplementary Table S4. […]
(§4) PC-3 cell lysate was diluted in cathepsin X assay buffer (1 mg/ml protein concentration). […] After blocking with 5% skimmed milk powder in TBS with 0.05% Tween 20, membrane was incubated with streptavidin-HRP (1:5000; Jackson ImmunoResearch) for 1 hour and proteins were detected with […]

PC-12 cells = test: Determination of F-actin content of cells (phalloidin-TRITC fluorescence microscopy); format: cell-based, rat; conditions: 10 µM, 2 h
Experimental: For the fluorescence staining of F-actin, PC-12 cells were cultured on glass coverslips coated with poly-L-lysine (4 × 10^4/ml). Next day, cells were treated with compounds (10 µM) in serum-free medium for 2 h. The cells were then fixed in 5% formalin (w/v) in PBS (pH 7.4) for 5 min and permeabilized with 0.1% Triton X-100 in PBS for 3 min. After washing with PBS, cells were incubated with phalloidin-TRITC (500 ng/mL) (Sigma) in 20 mM TrisHCl (pH 7.4) at 37 °C for 30 min. After additional washing with PBS, the Prolong Antifade kit was used for mounting the coverslips on glass slides. Fluorescence microscopy was performed using an Olympus IX 81 motorized inverted microscope.

cathepsin X = cathepsin X (Homo sapiens, UniProt Q9UBR2); test: Labeling of cathepsin X with activity-based probe DCG-04 in PC-3 cell lysate; format: biochemical; set-up: endogenous in cells; host or cells: PC-3; conditions: 10 µM inhibitor
Experimental: as §1, §2, §3, §4

Sequence of cathepsin X (Q9UBR2 62-303): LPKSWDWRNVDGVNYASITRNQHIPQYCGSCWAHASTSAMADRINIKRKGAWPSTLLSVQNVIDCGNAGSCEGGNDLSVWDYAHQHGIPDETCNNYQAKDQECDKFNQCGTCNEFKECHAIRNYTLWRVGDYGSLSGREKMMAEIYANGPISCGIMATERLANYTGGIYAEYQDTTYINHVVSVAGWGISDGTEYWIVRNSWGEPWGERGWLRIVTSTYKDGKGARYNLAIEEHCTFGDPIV

CC(C)n1cnnc1SCC(=O)c1ccc2c(c1)OCCO2 [Compound 22, 1-(2,3-Dihydrobenzo[b][1,4]dioxin-6-yl)-2-((4-isopropyl-4H-1,2,4-triazol-3-yl)thio)ethan-1-one]
% of 22 in the cell media (PC-3 cells): 84% | actin polymerization (PC-12 cells): increased actin polymerization | delay of cathepsin X labeling by DCG-04 (cathepsin X): approximately 20 minutes
